PMC7594722, “Investigation of pesticides on honey bee carbonic anhydrase inhibition” (Journal of Enzyme Inhibition and Medicinal Chemistry, 2020)
Where two headings read alike, the source gives them in different places.

Tests used:
[1] = target: AmCA (Apis mellifera spermatheca carbonic anhydrase); conditions: AmCA inhibition data from previous study; cited from earlier work
[2] = target: AmCA (Apis mellifera spermatheca carbonic anhydrase); assay: AmCA inhibition, colorimetric CO2 hydrase assay; type: biochemical; conditions: AmCA from honey bee spermatheca, triplicate, enzyme concentration 8.9 nM
Experimental: Bee spermatheca samples were washed three times with 50 mM Tris/Sulphate (pH 7.8). Spermatecha samples taken from 200 bees were combined and homogenised with liquid nitrogen, then placed in the same buffer and centrifuged at 4 °C, 15,000 g for 30 min. The precipitate portion was discarded and the supernatant portion was separated and used in subsequent studies.
The enzyme was purified using Sepharose-4B-sulfanilamide affinity gel prepared by our group. Aniline was used as a spacer arm in the chromatography column. The column was then equilibrated with 25 mM Tris-HCl/0.1M Na2SO4 (pH 8.7) and the gel was washed with 25 mM Tris-HCl/22 mM Na2SO4 (pH 8.7). Finally, elution was performed with 1 M NaCl/25 mM Na2HPO4 (pH 6.3). The temperature was kept at 4 °C during all experiments.
The effects of methomyl, oxamyl, deltamethrin, dichlorodiphenyltrichloroethane ([…]), cypermethrin and diazinon on AmCA activities were assayed colorimetrically using the CO2 hydrase assay, in triplicate at each concentration of inhibitor (ranging from 1 nM to 10 mM). Control enzyme activity was taken as 100%. An activity % versus inhibitor graph was drawn for all pesticides (Microsoft Office 2000, Excel). Pesticide concentrations that caused 50% inhibition (IC50) of the enzyme activity were thus obtained graphically using a regression software. The enzyme concentration in the assay system was 8.9 nM.

[3] = test system: honey bees and bumblebees; conditions: cited from earlier work
[4] = test system: honey bees and bumblebees; conditions: cited from earlier work; remark: listed apart in the source

Row | SMILES | IC50 [1] | IC50 [2] | oral dose rates (oral LD50) [3] | topical lethal dose (LD50) [4]
1 | CCNc1nc(Cl)nc(NC(C)C)n1 [Atrazine, atrazine] | 16.5 nM |  |  | 
2 | CNC(=O)Oc1cccc2ccccc12 [Carbaryl, carbaryl] | 3.1 nM |  |  | 
3 | CNC(=O)Oc1cccc2c1OC(C)(C)C2 [Carbonfuran, carbofuran] | 8.7 nM |  |  | 
4 | CC1(C)C(C=C(Cl)Cl)C1C(=O)OC(C#N)c1cccc(Oc2ccccc2)c1 (stereo not drawn) [Cypermethrin, cypermethrin] |  | 7.8 ± 0.3 nM | 0.06 μg/bee | 0.03 μg/bee
5 | CC1(C)[C@H](C(=O)O[C@H](C#N)c2cccc(Oc3ccccc3)c2)[C@@H]1C=C(Br)Br [Deltamethrin, deltamethrin] |  | 2.8 ± 0.1 nM |  | 0.02 μg/bee
6 | CCOP(=S)(OCC)Oc1cc(C)nc(C(C)C)n1 [Diazinon, diazinon] |  | 38.5 ± 1.2 nM | 0.21 μg/bee | 0.38 μg/bee
7 | CNC(=O)ON=C(C)SC [Methomyl, methomyl] |  | 2.3 ± 0.1 nM | 3.38 μg/bee | 0.49 μg/bee
8 | CNC(=O)O/N=C(\SC)C(=O)N(C)C [Oxamyl, oxamyl] |  | 2.5 ± 0.1 nM |  | 
9 | CNC(=O)Oc1ccccc1OC(C)C [Propoxur, propoxur] | 32.1 nM |  |  | 
10 | CCNc1nc(Cl)nc(NCC)n1 [Simazin, simazine] | 27.3 nM |  |  | 
11 | CC(C)(C)C(O)(CCc1ccc(Cl)cc1)Cn1cncn1 (stereo not drawn) [Tebuconazole, tebuconazole] | 3 nM |  |  | 
